Measurements: patent US20240246815A1, “CHLORINE PEROXIDE RADICAL, AND PRODUCTION METHOD, COMPOSITION, QUANTIFICATION METHOD AND USE THEREOF” (SANKEI CO., LTD., priority 2021, published 2024)

Assay: Longevity of ESR signals in aqueous solution obtained by adding an acid to sodium chlorite
Type: physicochemical
Conditions: relatively low concentration of HCl (0.1 M sodium chlorite with 0.08 M HCl 1:1), stored in a dark location
Procedure: An aqueous solution obtained by adding an acid to sodium chlorite was prepared by mixing 0.1 M sodium chlorite with 2.5 M hydrochloric acid to achieve a desired concentration by using ion exchange water. The concentration of sodium chlorite was measured by standard iodometry.
An aqueous solution obtained by adding an acid to sodium chlorite was placed in a glass capillary tube with a length of 100 mm and inner diameter of 2 mm. The glass capillary was transferred to a capillary cell attached to an ESR cavity, and ESR measurement was taken by using an X band spectrometer (JEOL FA-100ESR) operated at 9.43 GHz at room temperature. The magnetic field was modulated at 100 KHz. […] The signal intensity was normalized with respect to an MnO marker, and the concentration of stable radical products was determined based on signal height by using an external standard TEMPOL. Radical species found in an aqueous solution obtained by adding an acid to sodium chlorite was quantified by using an integrated software for determining a spectral region mounted onto an ESR device.
Free radicals in an aqueous solution obtained by adding an acid to sodium chlorite were measured by using ESR measurement. […] The solution was measured 4 minutes later by ESR spectroscopy. […]

For chlorine peroxide radical, the “ESR signals remained stable” value was “one”.
